The text below walks through data of patent US20030171218A1, “Substituted 3-heteroaryl(amino- or oxy)pyrrolidin-2-ones, their preparation and use as herbicides or plant growth regulators” (priority 2001, published 2003).

Data set [1] relates to weed plants such as Digitaria sanguinalis, Echinochloa crus-galli, Setaria faberi, Setaria viridis, Sorghum halepense, Abutilon theophrasti, Amaranthum …. The data set is described as follows: Pre-emergence effect on weeds (greenhouse pot test). The data set is classed as in vivo, monocotyledonous and dicotyledonous weed plants. The settings on record: application rate of 1 kg or less of active substance per hectare; scored visually after 3 to 4 weeks by comparison with untreated controls. In outline:
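Weed seeds or rhizome pieces sown in sandy loam and covered; compounds, formulated as wettable powders or emulsion concentrates, sprayed onto the soil surface as aqueous suspensions/emulsions at 600 to 800 l water/ha in various dosages. Greenhouse growth; visual scoring of plant damage/emergence versus untreated controls after 3 to 4 weeks.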

For data set [2], the system named is harmful plants such as Digitaria sanguinalis, Echinochloa crus-galli, Setaria faberi, Setaria viridis, Sorghum halepense, Abutilon theophrasti, Amaranthum …. Nature of the data set: Post-emergence effect on weeds (greenhouse pot test). Particulars: application rate of 1 kg and less of active substance per hectare; treated at three-leaf stage; scored visually after about 3 to 4 weeks by comparison with untreated controls. The data set is classed as in vivo, monocotyledonous and dicotyledonous weeds. The gist of the method:
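Greenhouse-grown weeds in sandy loam, sprayed at three-leaf stage (three weeks after sowing) with wettable powder or emulsion concentrate formulations at various dosages in 600 to 800 l water/ha. Effect scored visually against untreated controls after about 3 to 4 weeks.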

With `CC(C)c1nc(N)nc(NC2CCN(c3ccccc3)C2=O)n1` (stereo not shown) [Example A20], the melting point – broadly, the temperature of the solid-liquid transition – worked out at 210 °C. Moreover, the herbicidal activity pre-emergence result in data set [1] was “very good herbicidal activity”. Besides, the herbicidal activity post-emergence entry in data set [2] is on record as “very good herbicidal activity”.

Take `Cc1cc(N2CCC(Nc3nc(N)nc(C(C)F)n3)C2)ccc1F` (stereo not shown) [Example E11]: in data set [1], the herbicidal activity pre-emergence result was “very good herbicidal activity”. In data set [2], the herbicidal activity post-emergence result is recorded as “very good herbicidal activity”.

In the case of `Cc1nc(N)nc(NC2CCN(c3cccc(OC(F)(F)F)c3)C2=O)n1` (stereo not shown) [Example A8], in data set [1], the herbicidal activity pre-emergence result is “very good herbicidal activity”. In addition, the herbicidal activity post-emergence result in data set [2] is given as “very good herbicidal activity”.

As to `COc1cccc(N2CCC(Oc3nc(N)nc(C(C)(C)F)n3)C2=O)c1` (stereo not shown) [Example A59], the herbicidal activity pre-emergence result in data set [1] was “very good herbicidal activity”. Moreover, the herbicidal activity post-emergence result in data set [2] is “very good herbicidal activity”.

For the molecule `CN(c1nc(N)nc(C(C)(C)F)n1)C1CCN(c2cccc(C(F)(F)F)c2)C1=O` (stereo not shown) [Example A81], the herbicidal activity pre-emergence entry in data set [1] is “very good herbicidal activity”. For the same molecule, the herbicidal activity post-emergence result in data set [2] was “very good herbicidal activity”.

Take `CC(C)(F)c1nc(N)nc(OC2CCN(c3cccc(C(F)(F)F)c3)C2=O)n1` (stereo not shown) [Example A54]: the herbicidal activity pre-emergence result in data set [1] was “very good herbicidal activity”. The herbicidal activity post-emergence result in data set [2] was “very good herbicidal activity”.

As for `CC(C)c1nc(N)nc(NC2CCN(c3cccc(Cl)c3)C2)n1` (stereo not shown) [Example E18], in data set [1], the herbicidal activity pre-emergence entry was “very good herbicidal activity”. Also, the herbicidal activity post-emergence entry in data set [2] is “very good herbicidal activity”.

With `CC(C)c1nc(N)nc(OC2CCN(c3ccccc3)C2=O)n1` (stereo not shown) [Example A45], the herbicidal activity pre-emergence entry in data set [1] was “very good herbicidal activity”. Moreover, the herbicidal activity post-emergence entry in data set [2] is “very good herbicidal activity”.

Turning to `CC(F)c1nc(N)nc(N(C)C2CCN(c3cccc(Cl)c3)C2)n1` (stereo not shown) [Example E64], the herbicidal activity pre-emergence result in data set [1] was “very good herbicidal activity”. The herbicidal activity post-emergence entry in data set [2] is “very good herbicidal activity”.

With `CN(c1nc(N)nc(C(C)(C)F)n1)C1CCN(c2cccc(Cl)c2)C1` (stereo not shown) [Example E55], the herbicidal activity pre-emergence result in data set [1] was “very good herbicidal activity”. Besides, in data set [2], the herbicidal activity post-emergence result is “very good herbicidal activity”.

On to `CC(C)(F)c1nc(N)nc(NC2CCN(c3ccccc3)C2=O)n1` (stereo not shown) [Example A35], for which the herbicidal activity pre-emergence entry in data set [1] is listed as “very good herbicidal activity”. Further, the herbicidal activity post-emergence result in data set [2] is reported as “very good herbicidal activity”.

Take `COc1cccc(N2CCC(N(C)c3nc(N)nc(C(C)(C)F)n3)C2=O)c1` (stereo not shown) [Example A77]: in data set [1], the herbicidal activity pre-emergence entry is “very good herbicidal activity”. Also, the herbicidal activity post-emergence entry in data set [2] is “very good herbicidal activity”.

Consider `CC(F)c1nc(N)nc(N(C)C2CCN(c3cccc(C(F)(F)F)c3)C2=O)n1` (stereo not shown) [Example A64], for which the herbicidal activity pre-emergence entry in data set [1] was “very good herbicidal activity”. The herbicidal activity post-emergence result in data set [2] was “very good herbicidal activity”.

As to `CC(C)(F)c1nc(N)nc(NC2CCN(c3cccc(F)c3)C2)n1` (stereo not shown) [Example E13], in data set [1], the herbicidal activity pre-emergence result is recorded as “very good herbicidal activity”. Further, in data set [2], the herbicidal activity post-emergence result is recorded as “very good herbicidal activity”.

As to `CC(C)c1nc(N)nc(N(C)C2CCN(c3cccc(C(F)(F)F)c3)C2)n1` (stereo not shown) [Example E66], the herbicidal activity pre-emergence entry in data set [1] is reported as “very good herbicidal activity”. For the same molecule, the herbicidal activity post-emergence entry in data set [2] is recorded as “very good herbicidal activity”.

`Cc1cc(C)cc(N2CCC(Nc3nc(N)nc(C(C)C)n3)C2)c1` (stereo not shown) [Example E27]: in data set [1], the herbicidal activity pre-emergence result is recorded as “very good herbicidal activity”. The herbicidal activity post-emergence entry in data set [2] was “very good herbicidal activity”.

`Cc1cc(C)cc(N2CCC(N(C)c3nc(N)nc(C(C)C)n3)C2)c1` (stereo not shown) [Example E68]: in data set [1], the herbicidal activity pre-emergence entry is reported as “very good herbicidal activity”. Also, in data set [2], the herbicidal activity post-emergence entry is listed as “very good herbicidal activity”.

With `Cc1cccc(N2CCC(Oc3nc(N)nc(C(C)(C)F)n3)C2=O)c1` (stereo not shown) [Example A56], the herbicidal activity pre-emergence entry in data set [1] was “very good herbicidal activity”. For the same molecule, the herbicidal activity post-emergence entry in data set [2] was “very good herbicidal activity”.

On to `CN(c1nc(N)nc(C(C)(C)F)n1)C1CCN(c2cccc(OC(F)(F)F)c2)C1=O` (stereo not shown) [Example A80], for which the herbicidal activity pre-emergence entry in data set [1] was “very good herbicidal activity”. For the same molecule, the herbicidal activity post-emergence entry in data set [2] is “very good herbicidal activity”.

For `Cc1cccc(N2CCC(Nc3nc(N)nc(C(C)F)n3)C2=O)c1` (stereo not shown) [Example A13], in data set [1], the herbicidal activity pre-emergence result is recorded as “very good herbicidal activity”. Also, the herbicidal activity post-emergence result in data set [2] is on record as “very good herbicidal activity”.

`CC(C)(F)c1nc(N)nc(OC2CCN(c3ccccc3)C2=O)n1` (stereo not shown) [Example A55] returned a melting point of 77 °C. Further, the herbicidal activity pre-emergence result in data set [1] was “very good herbicidal activity”. For the same molecule, in data set [2], the herbicidal activity post-emergence entry is “very good herbicidal activity”.

On to `Cc1cccc(N2CCC(Nc3nc(N)nc(C(C)C)n3)C2)c1` (stereo not shown) [Example E9], for which the herbicidal activity pre-emergence entry in data set [1] is recorded as “very good herbicidal activity”. In addition, the herbicidal activity post-emergence result in data set [2] is given as “very good herbicidal activity”.

As to `CC(C)c1nc(N)nc(OC2CCN(c3cccc(OC(F)(F)F)c3)C2=O)n1` (stereo not shown) [Example A51], the herbicidal activity pre-emergence result in data set [1] is given as “very good herbicidal activity”. The herbicidal activity post-emergence entry in data set [2] was “very good herbicidal activity”.

With `CC(F)c1nc(N)nc(OC2CCN(c3cccc(Cl)c3)C2=O)n1` (stereo not shown) [Example A43], the herbicidal activity pre-emergence result in data set [1] was “very good herbicidal activity”. Moreover, the herbicidal activity post-emergence entry in data set [2] is “very good herbicidal activity”.

As for `Cc1cc(C)cc(N2CCC(Nc3nc(N)nc(C(C)F)n3)C2=O)c1` (stereo not shown) [Example A14], the herbicidal activity pre-emergence entry in data set [1] is given as “very good herbicidal activity”. In addition, the herbicidal activity post-emergence result in data set [2] is recorded as “very good herbicidal activity”.

Consider `Cc1cccc(N2CCC(N(C)c3nc(N)nc(C(C)(C)F)n3)C2=O)c1` (stereo not shown) [Example A84], for which, in data set [1], the herbicidal activity pre-emergence result is listed as “very good herbicidal activity”. Further, in data set [2], the herbicidal activity post-emergence result was “very good herbicidal activity”.

On to `COc1cccc(N2CCC(Oc3nc(N)nc(C(C)F)n3)C2=O)c1` (stereo not shown) [Example A41], for which the herbicidal activity pre-emergence entry in data set [1] was “very good herbicidal activity”. For the same molecule, the herbicidal activity post-emergence result in data set [2] is “very good herbicidal activity”.

For the molecule `CC(C)(F)c1nc(N)nc(NC2CCN(c3cccc(OC(F)(F)F)c3)C2)n1` (stereo not shown) [Example E22], the herbicidal activity pre-emergence entry in data set [1] is “very good herbicidal activity”. Moreover, the herbicidal activity post-emergence entry in data set [2] is reported as “very good herbicidal activity”.
